One experiment deals with T1, human HSD17B13 (Homo sapiens, UniProt Q7Z5P4).
T1 construct: human HSD17B13 (residues 2-300, NP_835236.2); 10x His (N); TEV protease site (N); made in house; host or cells: Sf9 (baculovirus)
T1 sequence (Q7Z5P4 2-300): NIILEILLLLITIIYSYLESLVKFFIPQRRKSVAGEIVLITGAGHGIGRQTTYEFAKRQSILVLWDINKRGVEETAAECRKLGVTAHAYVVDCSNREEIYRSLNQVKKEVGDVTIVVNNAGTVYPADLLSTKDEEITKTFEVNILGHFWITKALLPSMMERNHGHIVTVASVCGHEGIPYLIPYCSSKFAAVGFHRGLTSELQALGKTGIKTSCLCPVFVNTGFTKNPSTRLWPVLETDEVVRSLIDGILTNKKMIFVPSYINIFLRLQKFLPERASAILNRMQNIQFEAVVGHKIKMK
Briefly: HSD17B13 purified protein biochemical enzyme activity assay, NAD(P)H-Glo luciferase readout. The settings on record: IC 50 mean, Supplementary Figure 8 source data, unit inferred, uM printed. As for the experimental part: HSD17B13 enzyme inhibition potency of test compounds was determined using a purified protein biochemical enzyme activity assay, using NAD(P)H-Glo luciferase readout (Promega). HSD17B13 enzyme uses the oxidized form of nicotinamide adenine dinucleotide (NAD^+) as a cofactor during metabolism of β-estradiol (substrate) to […] (product), while converting NAD^+ to the reduced form (NADH). The Promega NAD(P)H-Glo™ assay is a homogeneous bioluminescent assay that generates a light signal from biochemical reactions that contain NADH (or nicotinamide adenine dinucleotide phosphate, NADPH). In the presence of NADH (or NADPH), the enzyme Reductase reduces a proluciferin reductase substrate to form luciferin. Luciferin then is quantified using Ultra-Glo™ Recombinant Luciferase (rLuciferase), and the light signal produced is proportional to the amount of NAD(P)H in the sample. […] The reaction was initiated by the addition of 2 µL/well purified HSD17B13 protein (30 nM FAC in assay buffer). […] Detection reagent was incubated in the dark for 1 hour at room temperature before plates were read on the Envision plate reader (Perkin Elmer) using a luminescent protocol. Data expressed as relative luminescent units (RLUs) were then normalized to control wells using Activity Base (IDBS). […]

The target in the next experiment is T2, human HSD17B11 (Homo sapiens, UniProt Q8NBQ5).
T2 construct: human HSD17B11 (residues 2-300, NP_057329.3); 10x His (N); TEV protease site (N); made in house; host or cells: Sf9 (baculovirus)
T2 sequence (Q8NBQ5 2-300): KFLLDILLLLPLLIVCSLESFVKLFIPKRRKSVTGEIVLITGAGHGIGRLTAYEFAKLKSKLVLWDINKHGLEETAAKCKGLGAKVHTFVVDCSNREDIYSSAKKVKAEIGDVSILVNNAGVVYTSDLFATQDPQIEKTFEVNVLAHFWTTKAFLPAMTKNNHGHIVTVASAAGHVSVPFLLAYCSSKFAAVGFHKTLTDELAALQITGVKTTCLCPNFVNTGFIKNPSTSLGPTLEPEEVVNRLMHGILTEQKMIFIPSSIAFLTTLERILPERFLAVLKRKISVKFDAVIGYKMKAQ
Briefly: Thermal shift assay (static light scattering, Tagg), human HSD17B11. The settings on record: Fig. 6d, 500 μM NAD+. The experiment is classed as binding. An excerpt:
Because of the low enzymatic activities of dog wild-type HSD17B13 (Fig. 6a) and HSD17B11 with β-estradiol, it was difficult to measure compound inhibition of these proteins in a biochemical assay and we instead utilized direct binding methods to compare compounds interaction with different proteins. To understand ligand binding, we tested several approaches such as surface plasmon resonance and isothermal calorimetry. Like many membrane/detergent-associated proteins, however, these methods were not amenable for HSD17B13. We next turned to thermal shift assays (TSA) for comparing ligand binding affinities. TSA measures the changes in the thermal denaturation temperature of a protein under different conditions such as the presence compound, changes in buffer conditions, or sequence mutations. There are various readouts including intrinsic fluorescence or light scattering signals. We chose the static light scattering methods to detect the temperatures at which our proteins start to aggregate (Tagg), which are more suitable for membrane proteins that require detergent micelles for stability. Given that in theory[51] and in practice Tagg continues to increase with concentration of ligands far above their IC50s, we used high cofactor and inhibitor concentrations in the TSA experiments to maximize the ligand binding signal.
TSA studies were run on the UNit instrument (Unchained Labs, CA, USA). Experiments were run in either 25 mM sodium phosphate pH 7, 150 mM NaCl, 10% glycerol, 1 mM TCEP, 0.05% DDM, + different cofactors (NAD^+, NADH, NADP, NADPH; MilliporeSigma) or 25 mM HEPES pH 7.2, 300 mM NaCl, 0.5 mM TCEP, 0.05% DDM, 10% glycerol, ±500 µM NAD^+, and ±100 µM compound 1 (from 2 mM DMSO stock) or DMSO or 50 mM Hepes pH 7.5, 300 mM NaCl, 0.5 mM TCEP, 0.05% DDM, 500 µM NAD^+, ± 50 µM compounds (from 2 mM stock) or DMSO. Protein aggregation was measured by static light scattering at 266 and 473 nm with a 1 °C/sec ramp rate from 20-80 °C. The data was processed using the UNcle software (Unchained Labs, CA, USA), and temperatures at which the protein started aggregation were recorded as Tagg. Reported Tagg and analysis were based on measurements at 266 nm unless otherwise indicated. The protein concentration used was 10.4 μM.

Where “and” joins values, the source holds several entries; their conditions need not be identical. Equal values may be shown once.

One may read the IC50 as the midpoint of a concentration-inhibition curve. High values mean a need for much substance, low ones inhibition by little substance. Molecule `O=C(NC[C@]1(O)CC[C@H](COc2ccccc2F)CC1)c1ccc(O)c(F)c1` [Compound 1] came in with an IC50 at human HSD17B13 of 0.18 µM. For the same molecule, the “effect on protein stability in TSA” value at human HSD17B11 is listed as “neither 1 nor 2 showed an effect on protein stability”. Moreover, at human HSD17B11 (50 µM compound), the Tagg was 37.65 °C and 35.79 °C and 38.54 °C and 39 °C and 39.99 °C and 38.79 °C and 39.64 °C and 38.95 °C.

(Values after publication PMC10449848, “Structural basis of lipid-droplet localization of 17-beta-hydroxysteroid dehydrogenase 13” (Nature Communications, 2023).)
